Where two headings read alike, the source gives them in different places.
Columns and labels:
human α-coronavirus 229E = test: Viral inhibition (CPE / cell viability readout) in 16HBE cells infected by α-coronavirus 229E; format: cell-based; details: for EC50: 120 h, read-out: EC50 (concentration which results in 50% viral inhibition)
Method: The EC50 and CC50 of SR-31747 were determined in an in vitro model of infection by human α-coronavirus 229E.
Briefly, a dilution series of SR-31747 (8-point, half-log dose titration, 30 μM-10 nM) was added to 16HBE cells. Vehicle and positive control (remdesivir, 8-point, half-log dose titration, 20 μM-6.4 nM) wells were set up to control for any influence of the compounds alone on cell viability. Cells were visually inspected for the appearance of any cytopathic effects (CPE). A cell viability assay was performed once CPE was complete.
The readouts were: • EC50: The concentration which results in 50% viral inhibition, following the addition of compounds; • CC50: The concentration which results in 50% cell viability, following the addition of compounds; • Selectivity index: Calculated as CC50/EC50.
Protocol: • 1. 16HBE cells permissible to infection by α-coronavirus 229E were grown and seeded into 96-well plates to a confluency of 80-90%. • 2. The compounds SR-31747 and remdesivir (positive control) were serially diluted half-log into 8 concentrations in total and added to cells for 1 hour at 37° C. • 3. After 1 hour, α-coronavirus 229E was added at 100xTCID50. A mock infection of blank media was added to the uninfected controls. • 4. After infection, the virus/compound was removed and an overlay medium was added, with equivalent concentrations of the compounds. • 5. […] Once CPE was observed, supernatants were taken and stored at −80° C. • 7. A cell viability assay was then performed on all conditions, with cells receiving the treatment compared to the vehicle treated and uninfected controls. Calculations are as follows:
% viral inhibition=[(A-B)/(C-B)] x100, where: • A: mean optical density of test, B: mean optical density of virus controls, C: mean optical density of cell controls. • Negative values occur when A<B, due either to natural variation or compound toxicity.

SARS-CoV-2 [1] = test: SARS-CoV-2-infected golden hamster model of COVID-19; format: in vivo; details: infected hamsters
Source text: SR-31747 was used freshly diluted in a diluent consisting of […], 5% ethanol and 5% tween-80.
24 male hamsters RjHan:AURA SPF were acclimated during 7 days and distributed in 4 groups of 6 hamsters each: • Group 1: Infected by SARS-CoV-2 and treated by SR-31747 • Group 2: Infected by SARS-CoV-2 and treated by diluent (negative control) • Group 3: Non-infected and treated by SR-31747 • Group 4: Non-infected and treated by diluent
On day 0, hamsters were infected intranasally by SARS-CoV-2 and received a first intraperitoneal injection of SR-31747 at 40 mg/kg.
On days 1, 2 and 3 the hamsters received an intraperitoneal injection of SR-31747 at 40 mg/kg. On day 4 sera and lungs from the hamsters were sampled.
From day 0 of day 4, the body temperature of the hamsters was measured at both flanks using a touchless infrared thermometer and a cumulative clinical score was determined (ruffled fur (no=0 or yes=1), slow movements (no=0, yes=1), apathy (no=0, yes=1), absence of rearing/exploration (no=0, yes=1)).
An olfactory test was conducted on day 3 preceded by a day of fasting. Briefly, cereals were buried in the litter of an individual cage and the latency to find the hidden cereals by the hamsters was measured.

SARS-CoV-2 [2] = test: microbe, parasite or virus in culture; format: cell-based; details: Severe acute respiratory syndrome coronavirus 2; A549-ACE2 cells, MOI 0,1, 72 hours, viral replication inhibition; read-out: RTqPCR: IC50
in vitro = details: human

SMILES: CCN(C/C=C\c1ccc(C2CCCCC2)c(Cl)c1)C1CCCCC1 [SR-31747, N-[(Z)-3-(3-chloro-4-cyclohexylphenyl)prop-2-enyl]-N-ethylcyclohexanamine]
- EC50 (human α-coronavirus 229E; 16HBE cells, α-coronavirus 229E at 100xTCID50, about 5 days): 1360 nM
- Selectivity index (CC50/EC50) (human α-coronavirus 229E; α-coronavirus 229E, 16HBE cells): 5
- Cumulative clinical score (SARS-CoV-2 [1]; 40 mg/kg intraperitoneal days 0-3, day 4, p=0,009 Mann-Whitney test): significantly reduces
- Olfactory test: latency to find hidden cereals (SARS-CoV-2 [1]; 40 mg/kg intraperitoneal, day 3): alleviates the olfactory dysfunction
- Lung weight (SARS-CoV-2 [1]; 40 mg/kg intraperitoneal, day 4, increase due to infection): significantly alleviated
- Body temperature (SARS-CoV-2 [1]; 40 mg/kg intraperitoneal, days 2 and 4): significantly increases
- IC50 (SARS-CoV-2 [2]): 2880 nM

SMILES: CCC(CC)COC(=O)[C@H](C)N[P@](=O)(OC[C@H]1O[C@@](C#N)(c2ccc3c(N)ncnn23)[C@H](O)[C@@H]1O)Oc1ccccc1 [Remdesivir, remdesivir, reference compound]
- EC50 (human α-coronavirus 229E; 16HBE): 340 nM
- CC50 (in vitro): > 20000 nM

Reference: patent US20230364033A1, “COMPOUNDS FOR TREATING VIRUS INFECTIONS” (Meletios Therapeutics, priority 2020, published 2023)
